Entries after “also recorded” stand apart in the source; their conditions may differ.

We go through 1 compound from patent publication US20220354852A1, “TARGETING WNT SIGNALING FOR IMPROVED GLIOMA IMMUNOTHERAPY” (CITY OF HOPE, priority 2021, published 2022).

For series [1], the system named is PBT017 and PBT106 derived lines that express high levels of the tumor antigen HER2. Kind of series: In vitro co-culture cytotoxicity assay, HER2-CAR T cells ± ICG-001. Type of series: cell-based, human. The method, then:
FIG. 2. Combinational strategy of CAR T cell-mediated tumor-antigen targeting with ICG-001 induced differentiation in glioma. […] (B) Cytotoxicity of HER2 CAR-T cells and tumor cells (1:5 ratio) was enhanced by ICG-001 at concentrations 1.25-5 μM. (C) Treatment of PBT138 patient glioma tumors with CAR T IL13Rα2+/−ICG-001.
FIG. 11. (A, B) Growth kinetics of human PBT glioma lines (PBT017, PBT030, PBT135, PBT144, and PBT147) treated with ICG-001 (0-10 μM) for 7 days and (C) mouse glioma cells (GL261, GL261-IL13, and K-luc) treated with ICG-001 (0-10 μM) for 4 days. Red boxes indicate PBT030 and PBT147 cell lines used for Nanostring and proteomics analysis. Scale bars represent S.D. of triplicate samples. (D-F) Growth kinetics of PBT017 (2,500 cells/well) treated with or without HER2-CAR T cells (500 cells/well) and with or without ICG-001 (0-5 μM). The red line is CAR T cell treatment only and the bottom three lines are with ICG-001. Experiment was done in quadruplicate and error bars indicate S.D.
FIG. 13 illustrates data resulting from the combination of ICG001 and CAR T cells toxicity in vitro using 2000 cells to start and 4 days (96-well Endpoint—cell count) according to certain embodiments.
FIG. 14 illustrates data resulting from the Combination of ICG001 and CAR T cells toxicity in vitro using 1000 cells to start and 4 days (96-well Endpoint—cell count) according to certain embodiments.
It has also been observed that ICG-001-induced differentiation of PBT017 and PBT138 (data not shown).
Next, the efficacy of a titrated dose of CAR T cells±ICG-001 to induce tumor cell killing in vitro was tested (FIG. 11D-F). The combination of HER2-engineered CAR T (HER2-CAR T) cells and IGC-001 was evaluated using in vitro co-culture assays.

The test system of series [2] is Wnt target genes BIRC5/Survivin and EphB2. The experiment in a line: Quantitative RT-PCR of Wnt target genes in human glioma cell lines. Type of series: cell-based. The method, then: FIG. 15. Expression of target genes post-ICG-001 treatment (0-10 μM) by RT-PCR using (A-C) mouse Survivin in GL261-IL13, GL261, and K-luc cells. (D) Survivin in PBT147 human glioma cells. (E, F) Luciferase reporter assay indicating downregulation of Survivin/BIRC5 in PBT017 and PBT030 cell lines.
FIG. 16 is a table showing the expression of the target genes survivin/BIRC5 post-ICG-001 treatment ([…]) as detected by RT-PCR and Luciferase Reporter Assay.
ICG-001 differentially affects the expression of the Wnt target genes BIRC5/Survivin and EphB2 in vitro. […] The effects of ICG-001 on Wnt/CBP/β-catenin signaling were further confirmed using a Survivin-luciferase reporter assay (FIG. 15). ICG-001's selective effects on the expression of Survivin and EphB2 may serve as indicators of ICG-001 on target tissue activity in vivo (FIG. 16) and a readout for pharmacokinetics/pharmacodynamics (PK/PD) as used previously in clinical trials with the second-generation CBP/β-catenin specific antagonist PRI-724 (Anthony et al. 2013).

In series [3] the test system is PBT147 and PBT030 glioma cell lines. Kind of series: Global proteomic analysis of PBT147 and PBT030. Type of series: cell-based, human. The following applies: 72 h. The method, then: FIG. 18. Proteomics analysis of PBT147 and PBT030 cell lines treated with ICG-001 (0-10 μM) for 72 h. (A) Protein density was calculated by the difference in log normalized levels for each protein between the four treated samples and the appropriate untreated sample. (B) Calculating the difference in log levels corresponds also to looking at the log of the fold changes in each protein. For both cell lines, the log fold-change for each protein at […] was plotted against the log fold-change at 10 μg. These plots are shown in A, with the points color-coded by cell line. This highlights a positive linear relationship between the log fold changes at 5 μg and 10 μg in both cell lines. […] The heatmap has been generated using Ward's method for clustering and the Manhattan (L1) distance. To highlight patterns of similar changes in regulation over cell lines and doses, rather than absolute differences in protein levels, quantile normalization has been used before creating the heatmap, with protein levels in each sample being normalized to that of a uniform distribution on −1≤x≤1.
FIG. 19 is a table showing a proteomics analysis at 72 hours for two cell lines (PB147, PB030) treated with ICG-001 in vitro at three doses (0 μg, 5 μg, 10 μg). 1557 proteins were quantified.
Proteomics data analysis. […] To examine the effect of the drug, the difference in log normalized levels for each protein between the four treated samples and the appropriate untreated sample was calculated, which corresponds to examining the log of the fold changes in each protein after treatment. For each of the two cell lines, the log fold change for each protein at 5 μg was plotted against the log fold change at 10 μg. These plots are shown in FIG. 17, with the points colored-coded by cell line. The line of (linear) regression is calculated and shown for each cell line.
The heatmap has been constructed by using Ward's method for clustering and the Manhattan (L1) distance. To highlight patterns of similar changes in regulation over cell-lines and doses, rather than absolute differences in protein levels, quantile normalization has been used before creating the heatmap, with protein levels in each sample being normalized those of a uniform distribution on −1≤x≤1.
Proteomics analyses of the PBT147 and PBT030 glioma cell lines after treatment with ICG-001 to elucidate targeted pathways in vitro. […]
To examine the effect of ICG-001, the difference in log-normalized levels was calculated for each protein between the four treated samples and the appropriate untreated samples (which corresponds to looking at the log of the fold changes in each protein). […] The line of (linear) regression is calculated and plotted for each cell line. […]

On to `O=C1[C@H](Cc2ccc(O)cc2)N2C(=O)CCN(C(=O)NCc3ccccc3)[C@H]2CN1Cc1cccc2ccccc12` [ICG-001], for which the “cytotoxicity of HER2 CAR-T cells” value in series [1] (CAR-T cells and tumor cells 1:5 ratio, ICG-001 1.25-5 μM) is on record as “enhanced”. Also, in series [1] (HER2-CAR T cells + ICG-001, effector: target cell ratios of 1:5 and 1:10), the “tumor cell killing at given effector: target cell ratios” value was “Enhanced killing”. Also, in series [1] (PBT017 (and PBT106) lines, ICG-001 0-5 μM), the “tumor cell killing, ICG-001 in combination with HER2-CAR T cells” value was “synergistic cytotoxicity; also recorded: synergistic killing”. Besides, the “killing by CAR T cells of ICG-001-treated tumor cells” value in series [1] (Tumor[PBT106.eGFP]: CAR T [Her2] cells in ratios (1:2; 1:2, 1:4)) is “improved killing by CAR T cells”. Besides, in series [2], the “expression of Wnt/p300/β-catenin target gene EphB2” value was “upregulating”. Besides, in series [2] (ICG-001 0-10 μM), the “expression of Wnt/CBP/β-catenin target gene BIRC5/Survivin” value is “selectively downregulated”. The “dose effect on protein fold change, PBT030 versus PBT147” value in series [3] (5 μM versus 10 μM) is “significantly greater in PBT030 than PBT147”. For the same compound, in series [3] (ICG-001 0, 5, and 10 μM), the “HA and LDHA protein expression” value is reported as “loss”; the PKM1 protein expression result is given as “increased”; the protein translation result is “overall increase in protein translation”.
